Data reported in patent US20170202939A1, “PERSONALIZED CANCER VACCINES AND METHODS THEREFOR” (Washington University, priority 2014, published 2017).
No end group written: not given here.

Test system: neoantigen-specific CD8+ T cells
Assay: immune monitoring of vaccinated patients, HLA/peptide dextramer (tetramer) assay on cultured PBMC
Type: in vivo, human
Details: for Immunogenicity: AAS-directed CD8+ T cell response in vaccinated patient; for frequency of neoantigen-specific CD8+ T cells / T cell response upon vaccination: post-vaccine PBMC, dextramer assay; for frequency of neoantigen-specific CD8+ T cells: upon culture, at the peak of response; for Spontaneous Immunity: pre-vaccine (naturally-occurring) CD8+ T cell response, immune monitoring assay; for pre-existing (naturally occurring) T cell immunity: pre-vaccine PBMC samples after in vitro stimulation
Method: Immunologic monitoring (Examples 1-10). Immunologic analysis to evaluate the kinetics and magnitude of T cell response to gp100 peptides was performed using PBMCs collected weekly (prior to vaccination and until week 21. Fresh PBMCs obtained by Ficoll-Hypaque gradient centrifugation were adjusted to 2×10^6 cells/ml in Stemline media (Sigma-Aldrich) containing 5% human AB-serum, and dispersed at 1 ml/well in 24-well plates. Cultures were set up for the gp100 peptides and the CMV pp65 peptide (positive peptide control). Cultures were pulsed with 40 μg/ml peptide and 50 U/ml IL-2 fed starting at 48 hours and every other day thereafter. On day 12 (peak of response; the inventors' unpublished observation), cultures were harvested, counted, and stained for flow cytometry analysis. To assess the antigen-specific T cell frequency, cells were stained with HLAA*0201/peptide tetramers (Beckman Coulter) for 30 minutes at room temperature, followed by addition of FITC-conjugated CD4, CD14, CD19, and CD56 and allophycocyanin-conjugated CD8 (Invitrogen) for 15 minutes at 4° C. Cells were washed and resuspended in FACS buffer, and 7AAD was added 5 minutes before analysis. Control CMV pp65-specific CD8+ T cells were detected in all CMV-seropositive patients before and after immunization. A negative HLA-A*0201/HIV gag peptide tetramer control was included. 25,000 events in the CD8+ gate were collected using a hierarchical gating strategy that included FSC/SSC and excluded 7AAD+ (dead) cells and CD4+CD14+CD19+CD56+ cells. Data were acquired and analyzed using Flow-Jo software.
To examine the kinetics and magnitude of T cell immunity to AAS peptides upon vaccination, peripheral blood mononuclear cells (PBMC) were collected prior to vaccination and weekly thereafter. The CD8+ T cell response to each peptide was analyzed using a HLA-A*02:01/AAS-peptide dextramer assay after a single round of in vitro stimulation. FIG. 30A illustrates kinetics of immune responses to neoantigens. Time is recorded in weeks (0 indicates pre-vaccination). Culture conditions and staining details are described infra. Antigen-specific numbers were calculated based on dextramer percentage and total live cell yields. Immunologic analysis to evaluate the kinetic and magnitude of T cell response to AAS-encoding and gp100-derived peptides was performed using PBMC collected weekly, starting before DC vaccination (Pre-vaccine in the figures) as described (Carreno, B. M., et al., J. Clin. Invest., 123, 3383-3394, 2013). Briefly, fresh PBMC obtained by Ficoll-Paque PLUS gradient centrifugation were cultured with 40 ug/mL peptide and IL-2 (50 U/mL). On day 10 (peak of response, unpublished data, labeled “Post-Vaccine” in the figures), neoantigen specific T cell frequencies were determined by staining with HLA-A*02:01/peptide dextramers (Immudex), followed by addition of FITC-CD4, -CD14, -CD19 (Invitrogen) and ALEXA® 488-CD56 (BD Pharmigen), APC-CD8 (Invitrogen). Cells were washed, resuspended in FACS buffer containing 7AAD. Twenty five thousand events in the CD8+ gate were collected using a hierarchical gating strategy that included FSC/SSC and excluded 7AAD-positive (dead cells) and CD4/14/19/56-positive cells. PBMC/CD8+ T cells derived from an unrelated HLA-A*02:01 patient were used as negative controls for assessing specificity of HLA-A*02:01/AAS-peptide dextramers (data not shown). Data were acquired and analyzed using Flow-Jo software. […] FIG. 30B illustrates the frequency of neoantigen specific T cells in CD8+ populations isolated directly from PBMC samples and after ex-vivo expansion using autologous DC and artificial antigen presenting cells. For dominant neoantigens TMEM48 F169L, SEC24A P469L and EXOC8 Q656, results are shown for samples obtained before vaccination (Pre-vaccine) and after 3 vaccine doses (Post-vaccine). For remaining neoantigens, results obtained with post-vaccine PBMC samples are shown. […]

| Sequence | Immunogenicity | frequency of neoantigen-specific CD8+ T cells | Spontaneous Immunity | pre-existing (naturally occurring) T cell immunity | T cell response upon vaccination |
| --- | --- | --- | --- | --- | --- |
| CLNEYHLFL | Yes | 23% | Yes | could be detected in pre-vaccine PBMC samples |  |
| MLGEQLFPL | Yes | 84% | No |  |  |
| KLMNIQQKL | Yes | 47% | No |  | reveal two additional ones |
| QLSCISTYV | Yes | 42% | No |  | reveal two additional ones |
| IILVAVPHV |  | 89% |  | could be detected in pre-vaccine PBMC samples |  |
